# Tested on: Long Evans rats
# Assay: Progressive ratio (PR) test, Study B
# Assay type: in vivo
# Settings: 0.025 mg/kg, rats
# Experimental: General: Experiments were conducted to test psilocybin doses in the range of 0.01-0.2 mg/kg psilocybin administered S.C. across progressive ratio (PR) and 5-choice serial reaction time task (5CSRTT) to examine the effect of psilocybin on endophenotypes of motivation and attention. In each study, a population of out-bred Long Evans rats was first tested as a group for response to the PR and 5CSRTT. Each group was then divided into subgroups by tertiles according to performance, and then exposed to various dose levels immediately prior to re-testing at various psilocybin dose levels.
# The PR test is used to answer how willing the test subject is to work for food (i.e. test of motivation). A single 45 mg food pellet (i.e. reinforcer) is made available to the test animal based on lever press response. To obtain each successive pellet, the animal must make increasingly more lever presses. Typically, a progression of 2, 4, 6, 9, 12, 15, 20, 25, 32, 40, 50, 62, 77, 95, 118, etc. is used, derived from the equation:
# ratio=[5×e^(0.2×reinforcer #)−5]
# At some point, the animal gives up as the motor demands to obtain a single pellet are not deemed worthwhile (i.e. animal reaches “break point” defined as animal's failure to earn a food pellet in 20 minutes).
# Study B: Based on Study 1 outcome, a follow-up PR study was conducted utilizing a larger cohort size (72 rats total), and incorporating a lower dose of psilocybin (0.025 mg/kg SC) (FIG. 2C and FIG. 2D). […] Separation of rats based on the lowest average break point recorded over the 7 days prior to testing identified a “low responder” subgroup of N=24 rats. […] There was no treatment effect on session duration (F3,69=2.4; P=0.07, NS), although there was trend for this to be increased at the 0.1 mg/kg dose (Veh: 15.1+2.0 min; Psilo 0.1 mg/kg: 18.7+2.5 min).
smiles,measurement,value
"CCN(CC)C(=O)[C@@H]1C=C2c3cccc4[nH]cc(c34)C[C@H]2N(C)C1 [LSD, D-lysergic acid diethylamide]",effect in PR test at lowest dose tested,no significant effect

# From patent US20230233584A1, “EXTENDED RELEASE 5-HT RECEPTOR AGONISTS FOR NEUROLOGICAL CONDITIONS” (Diamond Therapeutics Inc., priority 2020, published 2023)
